Experimental data from ChEMBL document CHEMBL3885861, “Open TG-GATES”.

Species: Rattus norvegicus
Assay: Open TG-GATES - Regimen: Daily Repeat
Type: toxicity, organism-based, Sprague-Dawley
Design: regimen Daily Repeat, gender Male, age 6 weeks
Details: in vivo, po, 0 mg/kg, route gavage, dose level Control; for APTT / Bas / Eos / Fbg / Hb / Ht / Lym / MCH / MCHC / MCV / Mono / Neu / PT / Plat / RBC / Ret / WBC: tissue Blood; for KIDNEY_L / KIDNEY_R / KIDNEY_TOTAL: tissue Kidney; for LIVER: tissue Liver; for A/G / ALP / ALT / AST / BUN / CRE / Ca / Cl / DBIL / GLC / IP / K / LDH / Na / PL / RALB / TBIL / TC / TG / TP / gamma-GTP: tissue Plasma

CCCc1cc(=O)[nH]c(=S)[nH]1 [PROPYLTHIOURACIL]
TERMINAL_BW (72 h, time 3 day): 207.9 g | APTT (72 h, time 3 day): 16.3 s | Bas (72 h, time 3 day): 0% | Eos (72 h, time 3 day): 0.8% | Fbg (72 h, time 3 day): 235 mg/dL | Hb (72 h, time 3 day): 13.5 g/dL | Ht (72 h, time 3 day): 40.7% | Lym (72 h, time 3 day): 73.4% | MCH (72 h, time 3 day): 21.7 pg | MCHC (72 h, time 3 day): 33.2% | MCV (72 h, time 3 day): 65.5 fL | Mono (72 h, time 3 day): 8.4% | Neu (72 h, time 3 day): 17.4% | PT (72 h, time 3 day): 12 s | Plat (72 h, time 3 day): 113.1 x10_4/uL | RBC (72 h, time 3 day): 622 x10_4/ul | Ret (72 h, time 3 day): 7.6% | WBC (72 h, time 3 day): 141.8 x10_2/uL | KIDNEY_L (72 h, time 3 day): 0.9 g | KIDNEY_R (72 h, time 3 day): 1 g | KIDNEY_TOTAL (72 h, time 3 day): 1.9 g | LIVER (72 h, time 3 day): 10.1 g | A/G (72 h, time 3 day): 1.9 | ALP (72 h, time 3 day): 904.6 IU/L | ALT (72 h, time 3 day): 38.6 IU/L | AST (72 h, time 3 day): 65.4 IU/L | BUN (72 h, time 3 day): 20.6 mg/dL | CRE (72 h, time 3 day): 0.5 mg/dL | Ca (72 h, time 3 day): 11.5 mg/dL | Cl (72 h, time 3 day): 103.4 meq/L | DBIL (72 h, time 3 day): 0.022 mg/dL | GLC (72 h, time 3 day): 192.8 mg/dL | IP (72 h, time 3 day): 8.7 mg/dL | K (72 h, time 3 day): 5 meq/L | LDH (72 h, time 3 day): 90.6 IU/L | Na (72 h, time 3 day): 137.4 meq/L | PL (72 h, time 3 day): 160.8 mg/dL | RALB (72 h, time 3 day): 3.9 g/dL | TBIL (72 h, time 3 day): 0.3 mg/dL | TC (72 h, time 3 day): 85.6 mg/dL | TG (72 h, time 3 day): 98.8 mg/dL | TP (72 h, time 3 day): 6 g/dL | gamma-GTP (72 h, time 3 day): 2 IU/L | TERMINAL_BW ([…], time 7 day): 242.6 g | TERMINAL_BW ([…], time 14 day): 275 g | TERMINAL_BW ([…], time 28 day): 364.4 g | APTT ([…], time 7 day): 16 s | Bas ([…], time 7 day): 0% | Eos ([…], time 7 day): 0.8% | Fbg ([…], time 7 day): 232.4 mg/dL | Hb ([…], time 7 day): 13.8 g/dL | Ht ([…], time 7 day): 41% | Lym ([…], time 7 day): 77.8% | MCH ([…], time 7 day): 21.4 pg | MCHC ([…], time 7 day): 33.6% | MCV ([…], time 7 day): 63.6 fL | Mono ([…], time 7 day): 5.6% | Neu ([…], time 7 day): 15.8% | PT ([…], time 7 day): 12 s | Plat ([…], time 7 day): 105.3 x10_4/uL | RBC ([…], time 7 day): 643.8 x10_4/ul | Ret ([…], time 7 day): 6.7% | WBC ([…], time 7 day): 127.9 x10_2/uL | APTT ([…], time 14 day): 16.2 s | Bas ([…], time 14 day): 0% | Eos ([…], time 14 day): 0.2% | Fbg ([…], time 14 day): 220.4 mg/dL | Hb ([…], time 14 day): 14.7 g/dL | Ht ([…], time 14 day): 43.9% | Lym ([…], time 14 day): 80.8% | MCH ([…], time 14 day): 21 pg | MCHC ([…], time 14 day): 33.4% | MCV ([…], time 14 day): 63 fL | Mono ([…], time 14 day): 4% | Neu ([…], time 14 day): 15% | PT ([…], time 14 day): 12.1 s | Plat ([…], time 14 day): 105.2 x10_4/uL | RBC ([…], time 14 day): 697.6 x10_4/ul | Ret ([…], time 14 day): 5% | WBC ([…], time 14 day): 125.5 x10_2/uL | APTT ([…], time 28 day): 16.6 s | Bas ([…], time 28 day): 0% | Eos ([…], time 28 day): 0.6% | Fbg ([…], time 28 day): 223.8 mg/dL | Hb ([…], time 28 day): 15.3 g/dL | Ht ([…], time 28 day): 45.9% | Lym ([…], time 28 day): 86.8% | MCH ([…], time 28 day): 19.5 pg | MCHC ([…], time 28 day): 33.4% | MCV ([…], time 28 day): 58.4 fL | Mono ([…], time 28 day): 3.8% | Neu ([…], time 28 day): 8.8% | PT ([…], time 28 day): 12.1 s | Plat ([…], time 28 day): 105.4 x10_4/uL | RBC ([…], time 28 day): 786.4 x10_4/ul | Ret ([…], time 28 day): 2.8% | WBC ([…], time 28 day): 95.2 x10_2/uL | KIDNEY_L ([…], time 7 day): 1.1 g | KIDNEY_R ([…], time 7 day): 1.1 g | KIDNEY_TOTAL ([…], time 7 day): 2.1 g | KIDNEY_L ([…], time 14 day): 1.1 g | KIDNEY_R ([…], time 14 day): 1.1 g | KIDNEY_TOTAL ([…], time 14 day): 2.2 g | KIDNEY_L ([…], time 28 day): 1.3 g | KIDNEY_R ([…], time 28 day): 1.3 g | KIDNEY_TOTAL ([…], time 28 day): 2.6 g | LIVER ([…], time 7 day): 11.7 g | LIVER ([…], time 14 day): 12.2 g | LIVER ([…], time 28 day): 15.2 g | A/G ([…], time 7 day): 1.8 | ALP ([…], time 7 day): 1082.6 IU/L | ALT ([…], time 7 day): 34.2 IU/L | AST ([…], time 7 day): 67.4 IU/L | BUN ([…], time 7 day): 20.8 mg/dL | CRE ([…], time 7 day): 0.5 mg/dL | Ca ([…], time 7 day): 11.5 mg/dL | Cl ([…], time 7 day): 106.2 meq/L | DBIL ([…], time 7 day): 0.016 mg/dL | GLC ([…], time 7 day): 180 mg/dL | IP ([…], time 7 day): 8 mg/dL | K ([…], time 7 day): 5.2 meq/L | LDH ([…], time 7 day): 95.6 IU/L | Na ([…], time 7 day): 139 meq/L | PL ([…], time 7 day): 158.4 mg/dL | RALB ([…], time 7 day): 3.9 g/dL | TBIL ([…], time 7 day): 0.4 mg/dL | TC ([…], time 7 day): 77 mg/dL | TG ([…], time 7 day): 127 mg/dL | TP ([…], time 7 day): 6.1 g/dL | gamma-GTP ([…], time 7 day): 1.8 IU/L | A/G ([…], time 14 day): 1.8 | ALP ([…], time 14 day): 719.8 IU/L | ALT ([…], time 14 day): 30 IU/L | AST ([…], time 14 day): 59.4 IU/L | BUN ([…], time 14 day): 18.8 mg/dL | CRE ([…], time 14 day): 0.7 mg/dL | Ca ([…], time 14 day): 11 mg/dL | Cl ([…], time 14 day): 107.4 meq/L | DBIL ([…], time 14 day): 0.006 mg/dL | GLC ([…], time 14 day): 183.6 mg/dL | IP ([…], time 14 day): 8.1 mg/dL | K ([…], time 14 day): 4.4 meq/L | LDH ([…], time 14 day): 87.4 IU/L | Na ([…], time 14 day): 140.8 meq/L | PL ([…], time 14 day): 150.4 mg/dL | RALB ([…], time 14 day): 3.9 g/dL | TBIL ([…], time 14 day): 0.3 mg/dL | TC ([…], time 14 day): 69.4 mg/dL | TG ([…], time 14 day): 111.2 mg/dL | TP ([…], time 14 day): 6.1 g/dL | gamma-GTP ([…], time 14 day): 0.8 IU/L | A/G ([…], time 28 day): 1.8 | ALP ([…], time 28 day): 612.6 IU/L | ALT ([…], time 28 day): 27 IU/L | AST ([…], time 28 day): 59.8 IU/L | BUN ([…], time 28 day): 20.6 mg/dL | CRE ([…], time 28 day): 0.7 mg/dL | Ca ([…], time 28 day): 10.8 mg/dL | Cl ([…], time 28 day): 106.8 meq/L | DBIL ([…], time 28 day): 0.012 mg/dL | GLC ([…], time 28 day): 169.4 mg/dL | IP ([…], time 28 day): 6.7 mg/dL | K ([…], time 28 day): 4.5 meq/L | LDH ([…], time 28 day): 84 IU/L | Na ([…], time 28 day): 139.8 meq/L | PL ([…], time 28 day): 161.6 mg/dL | RALB ([…], time 28 day): 4 g/dL | TBIL ([…], time 28 day): 0.2 mg/dL | TC ([…], time 28 day): 76.6 mg/dL | TG ([…], time 28 day): 153.8 mg/dL | TP ([…], time 28 day): 6.3 g/dL | gamma-GTP ([…], time 28 day): 1.6 IU/L
